Numbers after ± are expanded uncertainties.
Assays:
[1] = wn = mass fraction of the nth substance listed; details: 100 kPa, Liquid; for viscosity: Cone and plate viscometry; for mass density: Vibrating tube method
[2] = 101.33 kPa, Liquid; for viscosity: Cone and plate viscometry; for mass density: Vibrating tube method

Structure (SMILES) | viscosity ([1]; 298.15 K, w2 = 0.151) [mPa·s] | mass density ([1]; 298.15 K, w2 = 0.151) [kg/m3] | viscosity ([1]; 310.15 K, w2 = 0.146) [mPa·s] | mass density ([1]; 310.15 K, w2 = 0.146) [kg/m3] | viscosity ([1]; 318.15 K, w2 = 0.142) [mPa·s] | mass density ([1]; 318.15 K, w2 = 0.142) [kg/m3] | viscosity ([2]; 298.15 K) [mPa·s] | mass density ([2]; 298.15 K) [kg/m3] | viscosity ([2]; 310.15 K) [mPa·s] | mass density ([2]; 310.15 K) [kg/m3] | viscosity ([2]; 318.15 K) [mPa·s] | mass density ([2]; 318.15 K) [kg/m3]
CC(CC(C)(C)C)CP(=O)([O-])CC(C)CC(C)(C)C.CCCCCCCCCCCCCC[P+](CCCCCC)(CCCCCC)CCCCCC + O | 142.4 ± 15 | 909.07 ± 9.6 | 79.66 ± 8.2 | 900.11 ± 9.5 | 55.58 ± 5.7 | 893.78 ± 9.4 | – | – | – | – | – | –
CC(CC(C)(C)C)CP(=O)([O-])CC(C)CC(C)(C)C.CCCCCCCCCCCCCC[P+](CCCCCC)(CCCCCC)CCCCCC | – | – | – | – | – | – | 999.6 ± 120 | 884.09 ± 9.7 | 482.6 ± 54 | 876.93 ± 9.6 | 316.7 ± 35 | 872.2 ± 9.5
